Results taken from paper PMC9143450, “Oxonitrogenated Derivatives of Eremophilans and Eudesmans: Antiproliferative and Anti-Trypanosoma cruzi Activity” (Molecules, 2022).

Columns and labels:
SW1573 = test: Antiproliferative SRB assay (NCI protocol), SW1573; format: cell-based, human; conditions: for Selectivity index (SI) on tumor cells: CC50 splenocytes / GI50 SW1573; for GI50: SW1573 (non-small cell lung), 48 h drug exposure, SRB, ± SD
Protocol: (§1) In vitro antiproliferative activity was evaluated using the protocol of the National Cancer Institute (NCI) after 48 h of drug exposure using the sulforhodamine B (SRB) assay.
(§2) The following human solid tumor cell lines were used in this study: HBL-100 (breast), HeLa (cervix), SW1573 (non-small cell lung), T-47D (breast), A549 (lung), and WiDr (colon). These cell lines were a kind gift from Prof. G. J. Peters (VU Medical Center, Amsterdam, The Netherlands). Cells were maintained in 25 cm^2 culture flasks in RPMI 1640 supplemented with 5% heat-inactivated fetal calf serum and 2 mM L-glutamine in a 37 °C, 5% CO2, 95% humidified air incubator. Exponentially growing cells were trypsinized and resuspended in antibiotic containing medium (100 units penicillin G and 0.1 mg of streptomycin per mL). Single cell suspensions displaying > 97% viability by trypan blue dye exclusion test were subsequently counted. After counting, dilutions were made to give the appropriate cell densities for inoculation onto 96-well microtiter plates. Cells were inoculated in a volume of 100 μL per well at densities of 5000 (WiDr and T-47D), and 2500 (A549, HeLa, SW1573 and HBL-100) cells per well, based on their doubling times.
(§3) Chemosensitivity tests were performed using the SRB assay of the NCI with slight modifications. Briefly, pure compounds were initially dissolved in DMSO at 400 times the desired final maximum test concentration. Control cells were exposed to an equivalent concentration of DMSO (0.25% v/v, negative control). Each agent was tested in triplicates at different dilutions in the range 1–100 μM. Drug treatment started on day 1 after plating. Drug incubation periods were 48 h, after which cells were precipitated with 25 μL of ice-cold 50% (w/v) trichloroacetic acid and fixed for 60 min at 4 °C. Then, the SRB assay was performed. The optical density (OD) of each well was measured at 530 nm, using BioTek’s PowerWave XS Absorbance Microplate Reader. Values were corrected for background OD from wells containing only culture medium. The percentage growth (PG) was calculated with respect to untreated control cells (C) at each level of drug concentrations based on the difference in OD at the start time (T0) and at the end of drug exposure (T), according to NCI formulas. Therefore, if T is greater than or equal to T0, the calculation is 100 × ((T − T0)/(C − T0)). If T is lower than T0, denoting cell death, the calculation is 100 × ((T − T0)/(T0)). The effect is defined as the growth percentage, where 50% growth inhibition (GI50) represents the concentration at which PG is +50. Based on these calculations, a PG value of 0 corresponds to the number of cells present at the beginning of drug exposure, while negative PG values denote net cell death.

T-47D = test: Antiproliferative SRB assay (NCI protocol), T-47D; format: cell-based, human; conditions: for Selectivity index (SI) on tumor cells: CC50 splenocytes / GI50 T-47D; for GI50: T-47D (breast), 48 h drug exposure, SRB, ± SD
Protocol: as §1, §2, §3

HBL-100 = test: Antiproliferative SRB assay (NCI protocol), HBL-100; format: cell-based, human; conditions: for GI50: HBL-100 (breast), 48 h drug exposure, SRB, ± SD; for Selectivity index (SI) on tumor cells: CC50 splenocytes / GI50 HBL-100
Protocol: as §1, §2, §3

A549 = test: Antiproliferative SRB assay (NCI protocol), A549; format: cell-based, human; conditions: for Selectivity index (SI) on tumor cells: CC50 splenocytes / GI50 A549; for GI50: A549 (lung), 48 h drug exposure, SRB, ± SD
Protocol: as §1, §2, §3

[1] = Cytotoxicity on primary cell culture (flow cytometry, PI); format: cell-based; conditions: Balb/c, mouse, primary splenocytes (spleen cells), ± SD, read-out: Cytotoxic activity on spleen cells (CC50)
Protocol: The cytotoxicity of the natural sesquiterpenes (1–3) and derivatives (4–19) was determined on primary cell cultures (splenocytes obtained from Balb/c mouse). […] Derivatives of tessaric acid have shown an improvement in CC50 values in comparison with the natural sesquiterpene 1. […] All the derivatives synthesized from alcohol ilicic (compounds 10–19) were more toxic to mammalian cells than the natural compound (3).
The cytotoxicity of the compounds was evaluated on splenocytes obtained from Balb/c mouse (1.5 × 10^5) and incubated with different drug dilutions (5–200 μg/mL) as previously described. Cell death was determined by flow cytometry using a BD FACSaria II cytometer. Cells incubated only with drug vehicle were used as 100% viability control, and death percentage was calculated according to the following formula: Death%=1−(%PI^−cells)drug−treated/(%PI^−cells)100% viability control × 100
The concentration capable of causing 50% cell death (CC50) was determined using a non-linear regression approach.

HeLa = test: Antiproliferative SRB assay (NCI protocol), HeLa; format: cell-based, human; conditions: for Selectivity index (SI) on tumor cells: CC50 splenocytes / GI50 HeLa; for GI50: HeLa (cervix), 48 h drug exposure, SRB, ± SD
Protocol: as §1, §2, §3

[2] = test system: Trypanosoma cruzi epimastigotes (RA strain); test: In vitro anti-Trypanosoma cruzi assay ((3H) thymidine uptake); format: cell-based; conditions: for Selectivity Index on T. cruzi epimastigotes: CC50 splenocytes / IC50 epimastigotes; for IC50: Trypanosoma cruzi, epimastigotes (RA strain), ± SD; for Trypanocidal activity (in words): T. cruzi
Protocol: Trypanosoma cruzi epimastigotes (RA strain, from discrete typing unit (DTU) VI) were grown in a biphasic medium. Cultures were maintained by weekly passages at 28 °C [18].
The growth inhibition of T. cruzi epimastigotes was evaluated by a (^3H) thymidine uptake assay as previously described. Natural sesquiterpenes and derivatives were evaluated at concentrations ranging from 1.5 to 50 µg/mL. Benznidazole (Active Pharmaceutical Ingredient) was used as positive control (Elea). The percentage of inhibition was calculated as 100 = {((cpm of treated parasites)/(cpm of untreated parasites)) × 100}.
Figure 5 Effect of the natural sesquiterpene tessaric acid (1), ilicic acid (2), and ilicic alcohol (3) and their derivatives on T. cruzi. Epimastigotes (RA strain) were cultured in the presence of the compounds (50–1.5 µg/mL). Determinations were performed by triplicate. The results are expressed as the mean ± SD. (A) Effect of tessaric acid and derivatives on epimastigotes; (B) Effect of ilicic acid and derivatives on epimastigotes; (C) Effect of ilicic alcohol and derivatives on epimastigotes.

WiDr = test: Antiproliferative SRB assay (NCI protocol), WiDr; format: cell-based, human; conditions: for Selectivity index (SI) on tumor cells: CC50 splenocytes / GI50 WiDr; for GI50: WiDr (colon), 48 h drug exposure, SRB, ± SD
Protocol: as §1, §2, §3

[3] = test system: HeLa, T-47D, WiDr, A549, HBL-100, and SW1573 cell lines; test: Antiproliferative SRB assay, whole panel of human solid tumor cell lines; format: cell-based; conditions: for GI50: Homo sapiens, minimal to maximal GI50 across the cell lines tested, 48 h, SRB, read-out: GI50 values, range over all cell lines tested; for Antiproliferative activity (in words): solid tumor cell lines evaluated
Protocol: as §1, §2, §3

Row | Compound | IC50 [2] | GI50 [3] | Selectivity index (SI) on tumor cells (SW1573) | GI50 (SW1573; Homo sapiens) | Selectivity index (SI) on tumor cells (T-47D) | GI50 (T-47D; Homo sapiens, T47D) | GI50 (HBL-100; Homo sapiens) | GI50 (A549; Homo sapiens) | CC50 [1] | Selectivity index (SI) on tumor cells (HeLa) | GI50 (HeLa; Homo sapiens) | Selectivity Index on T. cruzi epimastigotes [2] | Selectivity index (SI) on tumor cells (WiDr) | GI50 (WiDr; Homo sapiens) | other results
1 | C=C(C(=O)N(c1ccccc1)C(C)(C)C(=O)NC(C)(C)C)[C@@H]1CCC2=CC(=O)C[C@H](C)[C@@]2(C)C1 [Compound 4] | 16.3 µM | – | 0.3 | 57 µM | 0.2 | 95 µM | > 100 µM | 68 µM | 17.3 µM | 0.3 | 68 µM | 1.1 | 0.2 | 98 µM | Selectivity index (SI) on tumor cells (A549): 0.25
2 | C=C(C(=O)N(Cc1ccccc1)C(C)(C)C(=O)NC1CCCCC1)C1CCC2(C)CCCC(C)(O)C2C1 (stereo not shown) [Compound 15] | 22.4 µM | 5.3 to 14 µM | 1.5 | 17 µM | 1.7 | 19 µM | 19 µM | 13 µM | 21.5 µM | – | 14 µM | 1.0 | 1.7 | 18 µM | Selectivity index (SI) on tumor cells (HBL-100): 1.5
3 | C=C(C(=O)N(Cc1ccccc1)C(C)(C)C(=O)NCc1ccccc1)C1CCC2(C)CCCC(C)(O)C2C1 (stereo not shown) [Compound 13] | 59.6 µM | 5.3 to 14 µM | 2.5 | 11 µM | 2.5 | 11 µM | 13 µM | 5.3 µM | 27.4 µM | 3.4 | 8 µM | 0.5 | 2.5 | 11 µM | Selectivity index (SI) on tumor cells (HBL-100): 2.1; Selectivity index (SI) on tumor cells (A549): 5.2
4 | N.N.[Cl][Pt][Cl] [Cisplatin, reference compound] | – | – | – | – | – | – | – | – | – | – | – | – | – | – | GI50 (SW1573): 2.7 µM; GI50 (T-47D): 17 µM; GI50 (HBL-100): 1.9 µM; GI50 (A549): 4.9 µM; GI50 (HeLa): 1.8 µM; GI50 (WiDr): 23 µM
5 | C=C(Cn1cc(CCCCCCCCCC)nn1)[C@@H]1CC[C@@]2(C)CCC[C@@](C)(O)C2C1 (stereo partly shown) [Compound 16] | 8.8 µM | 12 to 17 µM | – | – | 4.8 | 17 µM | – | – | 82.4 µM | 6.3 | 13 µM | 9.4 | 6.8 | 12 µM | –
6 | C=C(Cn1cc(-c2ccccc2)nn1)[C@@H]1CC[C@@]2(C)CCC[C@@](C)(O)C2C1 (stereo partly shown) [Compound 19] | 48.2 µM | – | – | – | 3.1 | 61 µM | – | – | 187 µM | 2.4 | 79 µM | 3.9 | 4.6 | 41 µM | –
7 | C=C(C(=O)N(Cc1ccccc1)C(C)(C)C(=O)NC(C)(C)C)[C@@H]1CCC2=CC(=O)C[C@H](C)[C@@]2(C)C1 [Compound 5] | 9.3 µM | – | – | > 100 µM | – | > 100 µM | > 100 µM | > 100 µM | 44.7 µM | – | > 100 µM | 4.8 | – | > 100 µM | –
8 | C=C(Cn1cc(Cc2ccccc2)nn1)[C@@H]1CC[C@@]2(C)CCC[C@@](C)(O)C2C1 (stereo partly shown) [Compound 18] | 30.2 µM | – | – | – | 1.4 | 44 µM | – | – | 62.2 µM | – | > 100 µM | 2.1 | 1.6 | 39 µM | –

Now from value to molecule, other results behind:

Row | IC50 [2] | GI50 [3] | Compound | Selectivity index (SI) on tumor cells (SW1573) | GI50 (SW1573; Homo sapiens) | Selectivity index (SI) on tumor cells (T-47D) | GI50 (T-47D; Homo sapiens, T47D) | GI50 (HBL-100; Homo sapiens) | GI50 (A549; Homo sapiens) | CC50 [1] | Selectivity index (SI) on tumor cells (HeLa) | GI50 (HeLa; Homo sapiens) | Selectivity Index on T. cruzi epimastigotes [2] | Selectivity index (SI) on tumor cells (WiDr) | GI50 (WiDr; Homo sapiens) | other results
9 | 26.1 µM | 17 to 64 µM | C=C(C(=O)N(Cc1ccccc1)C(C)(C)C(=O)NC(C)(C)C)C1CCC2(C)CCCC(C)(O)C2C1 (stereo not shown) [Compound 11] | 10.1 | 33 µM | 14.5 | 23 µM | 33 µM | 20 µM | 334 µM | 17.6 | 19 µM | 12.6 | 11.5 | 29 µM | Selectivity index (SI) on tumor cells (HBL-100): 10.1; Selectivity index (SI) on tumor cells (A549): 16.7
10 | 14.8 µM | – | C#CCCCc1cn(CC(=C)[C@@H]2CC[C@@]3(C)CCC[C@@](C)(O)C3C2)nn1 (stereo partly shown) [Compound 17] | – | – | 1.4 | 29 µM | – | – | 40.4 µM | 1.3 | 31 µM | 2.7 | 1.3 | 31 µM | –
11 | 156 µM | – | C=C(CO)[C@@H]1CC[C@@]2(C)CCC[C@@](C)(O)[C@@H]2C1 [Compound 3, ilicic alcohol] | – | > 100 µM | – | > 100 µM | > 100 µM | – | – | – | > 100 µM | – | – | > 100 µM | Trypanocidal activity (in words) [2]: nor trypanocidal activity; Antiproliferative activity (in words) [3]: did not show antiproliferative activity
12 | > 198 µM | – | C=C(C(=O)O)[C@@H]1CC[C@@]2(C)CCC[C@@](C)(O)[C@@H]2C1 [Compound 2, ilicic acid] | – | > 100 µM | – | > 100 µM | > 100 µM | – | – | – | > 100 µM | – | – | > 100 µM | Trypanocidal activity (in words) [2]: nor trypanocidal activity; Antiproliferative activity (in words) [3]: did not show antiproliferative activity
